Assay results reported in patent publication US10000511B2, “Small molecules for the modulation of MCL-1 and methods of modulating cell death, cell division, cell differentiation and methods of treating disorders” (priority 2010, dated 2018).
Like-named read-outs stand apart in the source and are kept apart here.

Legend:
MCL-1ΔNΔC [1] = assay: Competitive fluorescence polarization binding screen, FITC-MCL-1 SAHB/MCL-1ΔNΔC; conditions: selectivity for MCL-1ΔNΔC over BCL-XLΔC (BCL-XL % Bound minus MCL-1 % Bound)
MCL-1ΔNΔC [2] = target: T1, MCL-1ΔNΔC (Homo sapiens, UniProt Q07820); assay: as above; set-up: the C-terminal alpha-helix was deleted from each of these constructs to facilitate protein expression and purification; an additional N-terminal deletion of MCL-1 was performed; GST (N, cleaved yes); made in house; conditions: FITC-MCL-1 SAHB/MCL-1ΔNΔC interaction
T1 sequence (Q07820 172-320 limits assumed, stated change not applied): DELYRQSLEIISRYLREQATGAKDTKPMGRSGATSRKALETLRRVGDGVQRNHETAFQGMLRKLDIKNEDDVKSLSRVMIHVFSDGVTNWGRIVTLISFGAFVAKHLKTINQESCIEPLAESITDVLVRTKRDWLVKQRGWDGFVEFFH

BCL-XLΔC = BCL-XLΔC (Homo sapiens, UniProt Q07817); assay: Competitive fluorescence polarization binding screen, FITC-BAD BH3/BCL-XLΔC; conditions: FITC-BAD BH3/BCL-XLΔC interaction
Sequence of BCL-XLΔC (Q07817 1-212 limits assumed, stated change not applied): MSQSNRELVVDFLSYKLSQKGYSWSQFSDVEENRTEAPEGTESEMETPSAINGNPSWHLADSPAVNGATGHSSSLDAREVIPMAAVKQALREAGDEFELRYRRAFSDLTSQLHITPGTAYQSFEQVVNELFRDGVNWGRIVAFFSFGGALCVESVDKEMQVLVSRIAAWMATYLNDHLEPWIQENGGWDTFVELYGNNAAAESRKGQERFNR

MCL-1ΔNΔC [3] = target: T1, MCL-1ΔNΔC; conditions: pre-incubation, dilution, re-concentration, FITC-BID BH3 FP

SMILES | Spec Values (MCL-1ΔNΔC [1]) | further results
O=c1c(O)c(-c2ccc(O)c(O)c2)oc2cc(O)cc(O)c12 | 88.65 | 
CCN(CC)c1cc(C)c2cc(NC(=O)/C=C/c3ccco3)ccc2n1 |  | MCL-1% Bound (MCL-1ΔNΔC [2]): 11.73%; BCL-XL % Bound (BCL-XLΔC): 79.88%
O=C(CCN1C(=O)/C(=C\C=C\c2ccco2)SC1=S)Nc1ccc(C(=O)O)c(O)c1 | 54.54 | 
Cc1ccc(C)n1-c1cc(Cl)ccc1C(=O)O | 79.84 | 
CC1CCN(C2=NN3C(=N)/C(=C\c4ccc(SCc5ccco5)o4)C(=O)N=C3S2)CC1 | 70.38 | 
CCSC1=C(C#N)C(=O)NC(c2ccc(O)cc2)S1 (stereo not shown) |  | BCL-XL % Bound (BCL-XLΔC): 84.82%
Cc1ccc2c(c1C)NC(C(=O)O)C1CC=CC21 (stereo not shown) |  | MCL-1% Bound (MCL-1ΔNΔC [2]): 14.5%
C/C(=N\OCc1ccc(C(=O)N2CCCCC2)o1)c1cccc(C(F)(F)F)c1 | 55.34 | 
CCSC1=C(C#N)C(=O)NC(c2ccc(N(C)C)cc2)S1 (stereo not shown) | 49.2! | 
COc1ccc(/C=c2\s/c(=C\C(=O)c3ccco3)[nH]c2=O)cc1O |  | BCL-XL % Bound (BCL-XLΔC): 263.7%
Cc1cc2c(C(C)C)c(O)c(O)c(C=O)c2c(O)c1-c1c(C)cc2c(C(C)C)c(O)c(O)c(C=O)c2c1O [Gossypol] |  | mode of binding to MCL-1ΔNΔC (reversible/non-covalent vs covalent) (MCL-1ΔNΔC [3]): bound reversibly; mode of binding to MCL-1ΔNΔC (reversible/non-covalent vs covalent) (MCL-1ΔNΔC [3]; listed as 1570G15): engages MCL-1 through non-covalent interactions
Cc1ccc(/C=C2\C(=O)Nc3ccc(Br)cc32)o1 [drawing 54] | 58.85 | MCL-1% Bound (MCL-1ΔNΔC [2]): 18.74%
Cc1ccc(/C=C2\C(=O)Nc3ccc(Br)cc32)o1 [drawing 279] | 58.85 | 

Second part, led by results:

Spec Values (MCL-1ΔNΔC [1]) | SMILES | further results
52.25 | O=C(/C=C/c1ccco1)NC(=S)Nc1ccccc1C(F)(F)F | 
52.14 | O=C(/C=C/c1ccc(Br)o1)OCC(=O)c1c[nH]c2ccccc12 | BCL-XL % Bound (BCL-XLΔC): 105.6%
48.1 | Cc1cc(NC(=O)/C=C/c2ccco2)n(-c2nc3ccccc3n2Cc2cccc(Oc3ccccc3)c2)n1 | 
46.24 | COc1ccc(-c2nc3scc(CCNC(=O)/C=C/c4ccco4)n3n2)cc1 | 
71.24 | Oc1cccnc1NC(c1ccc(F)cc1)c1ccc2cccnc2c1O (stereo not shown) | 
49.28 | CN1CCN(C(c2ccccn2)c2c(-c3ccccc3)n(O)c3ccccc23)CC1 (stereo not shown) | 
48.92 | Cc1c(Cl)cccc1N1C(=O)CC(N2CCCc3ccccc32)C1=O (stereo not shown) | 
48.33 | COc1cc(C(c2nnnn2C2CCCCC2)N2CCc3ccccc3C2)ccc1O (stereo not shown) | 
